# Measurements published in patent US7875599B2, “C-17-heteroaryl steroidal CYP17 inhibitors/antiandrogens, in vitro biological activities, pharmacokinetics and antitumor activity” (University of Maryland, priority 2005, dated 2011).
# Entries after “also recorded” stand apart in the source; their conditions may differ.
# Key:
# [1] = test system: LAPC4 human prostate tumor xenograft; experiment: LAPC4 xenograft, first experiment (established tumors, 4 weeks of treatment); format: in vivo, mouse; conditions: 28 days
# Protocol: In the first experiment, the effect of compounds 5 and 6 on the growth of well-established LAPC4 prostate cancer tumors in SCID mice is determined, and castration is used as the reference treatment. Tumor-bearing mice are assigned (n=5/group) to receive one of two doses of 5 or 6 (0.15 mmol/kg once-daily or 0.15 mmol/kg twice-daily). Tumor volumes are measured weekly and compared with controls receiving vehicle or castrated mice.
# (§1) In Vivo Antitumor Studies (LAPC-4 Prostate Cancer Xenografts): All animal studies are performed according to the guidelines and approval of the Animal Care Committee of the University of Maryland School of Medicine, Baltimore. Male severe combined immunodeficient (SCID) mice 4-6 weeks of age purchased from the National Cancer Institute-Frederick Cancer Research and Development Center (Fredrick, Md.) are housed in a pathogen-free environment under controlled conditions of light and humidity and allowed free access to food and water. Tumors are developed from LAPC4 cells inoculated subcutaneously (s.c.) in the mice essentially as previously described (21). LAPC4 cells are grown in IMEM with 15% FBS plus 1% PS and 10 nm DHT until 80% confluent. Cells are scraped into DPBS, collected by centrifugation, and resuspended in Matrigel (10 mg/ml) at 3×10^7 cells/ml. Mice are injected s.c. with 100 μl of the cell suspension at one site on each flank. Tumors are measured weekly with calipers, and tumor volumes are calculated by the formula: […]).
# In the first experiment, LAPC4 tumors are allowed to grow for 8-10 weeks following inoculation. […] Mice are castrated under methoxyfluorane anesthesia. Compounds 5 and 6 were prepared at 17.2 mg/ml in a 0.3% solution of hydroxypropyl cellulose in saline, and mice receiv s.c. injections daily. Control and castrated mice are treated with vehicle only. Tumors are measured weekly for the 4 weeks of treatment and tumor volumes are calculated. At the end of the treatment period, the animals are sacrificed under halothane anesthesia; tumors are excised, weighed and stored at −80° C. Animals are also weighed weekly and monitored for general health status and signs of possible toxicity due to treatment.
# FIG. 6: In vivo antitumor activity of 5, 6 and orchidectomy on the growth of LAPC4 prostate tumors in male SCID mice. Groups of five mice with LAPC-4 tumors were treated with 5 (0.15 mmol/kg/day or 0.30 mmol/kg/day. Tumors volumes were measured weekly, and the percentage of change in tumor volume was determined after 28 days of treatment. The standard deviations of tumor volumes (not shown) were ±10-12% of the mean values.
# [2] = test system: LAPC4 human prostate tumor xenograft; experiment: LAPC4 xenograft, second experiment (treatment from day after inoculation); format: in vivo, mouse; conditions: 0.15 mmol/kg twice-daily s.c.
# Source text: The second in vivo experiment tests the ability of 5 to inhibit the growth of LAPC4 prostate cancer cells growing in SCID mice, and 16 (Chart 1), a previously identified potent CYP17 inhibitor/antiandrogen (Gregoriyev et al. and Njar et al., J. Med. Chem., 1998, 41, 902-912, above) and castration are used as reference treatments. In this experiment, treatment begins on the day that mice were inoculated subcutaneously with hormone-dependent LAPC4 cells and are castrated or injected sc twice daily with 5 or 16.
# as §1
# In the second experiment, mice are inoculated with LAPC4 cells and are divided into four groups of 5 mice each. The control and castrated group receiv vehicle, while the other two groups receiv either VN/85-1 (0.15 mmol/kg twice-daily, 9 a.m. and 5 p.m.) or 5 (0.15 mmol/kg twice-daily, 9 a.m. and 5 p.m.). These treatments are initiated one day after LAPC4 cell inoculation; continued for 14 weeks for control group, 19 weeks (for VN/85-1 and castration groups) and for 21 weeks for 5 treated group and tumors are measured and processed as described above.
# FIG. 7: The effects of 5, 16, and orchidectomy on the formation and growth of LAPC4 prostate tumors in male SCID mice. 3×10^7 LAPC-4 cells were injected s.c. into the dorsal flank of SCID mice. One group of mice was castrated. The other groups of mice received either vehicle or 5 (0.15 mmol/kg twice-daily) or 16 (0.15 mmol/kg twice-daily). Daily treatment with 5 or 16 was initiated 1 day after cell inoculation. Tumors volumes were measured weekly, and the percentage of change in tumor volume was determined after 16 weeks of treatment * Indicates significant difference of 5 versus control, castration and 16 at week 14 (P 0.00065, 0.05 and 0.0097, respectively). ** Indicates significant difference of 5 versus castration and 16 at week 16 (P=0.047 and 0.0047, respectively). ↓-↓↓: Period of reduced administered dose of 5.
# CYP17 = target: T1, CYP17 (Homo sapiens, UniProt P05093); experiment: UV-vis difference spectroscopy, binding to heme iron of CYP17
# T1 sequence (P05093 1-508): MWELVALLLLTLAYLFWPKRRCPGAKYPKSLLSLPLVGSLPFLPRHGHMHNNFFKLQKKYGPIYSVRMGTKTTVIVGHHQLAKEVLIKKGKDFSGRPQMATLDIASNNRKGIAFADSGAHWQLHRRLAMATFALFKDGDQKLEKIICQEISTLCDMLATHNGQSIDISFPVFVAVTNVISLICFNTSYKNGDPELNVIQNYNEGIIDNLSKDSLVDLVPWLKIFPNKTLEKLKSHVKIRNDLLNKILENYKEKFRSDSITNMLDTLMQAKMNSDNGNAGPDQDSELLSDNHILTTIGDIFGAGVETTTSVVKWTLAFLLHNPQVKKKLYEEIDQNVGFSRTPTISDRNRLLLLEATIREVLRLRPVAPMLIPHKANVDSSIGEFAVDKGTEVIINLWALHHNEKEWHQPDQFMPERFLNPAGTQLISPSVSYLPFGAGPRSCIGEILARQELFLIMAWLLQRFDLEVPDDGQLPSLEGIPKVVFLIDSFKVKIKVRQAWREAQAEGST
# LNCaP cells = experiment: LNCaP cell growth, WST-1 viability assay; conditions: Homo sapiens, LNCaP, 168 h, read-out: IC50, inhibition of DHT-induced LNCaP cell proliferation, 1 nM DHT, 7 days, WST-1
# Protocol: To determine the effect of novel compounds on cell proliferation, cells are transferred into steroid-free medium three days prior to the start of the experiments. Steroid-free medium consisted of phenol red free RPMI supplemented with 5% dextran-coated, charcoal treated serum, and 1% penicillin/streptomycin solution. Growth studies are then performed by plating cells (3×10^4) in 24-well multi-well dishes (Corning, Inc. Corning, N.Y.). After a 24 hours attachment period, the medium is aspirated and replaced with steroid-free medium containing vehicle or the indicated concentration of DHT (1 nM) and compounds (0.1 μM-10 μM). Control wells are treated with vehicle (ethanol). This medium is changed every three days and the number of viable cells is compared by WST-1 [4-[3-(4-iodophenyl)-2-(4-nitrophenyl)-2H-5-tetrazolio]-1,3-benzene disulfonate] assay on the seventh day. Following incubation of cells for the above-mentioned time, 10% WST-1 solution is added to each well and incubated at 37° C. for three hours. Following incubation, plates are slightly shaken and immediately read at 450 nm with a scanning multi-well spectrophotometer. All results represent the average of a minimum of three wells. Additional control consists of medium alone with no cells.
# Cells were grown in steroid-free medium before plating.
# [3] = test system: LNCaP mutant AR-mediated transcription; experiment: Luciferase transactivation assay in LNCaP cells transfected with ARR2-Luc; conditions: 18 h
# Protocol: Luciferase Transactivation Assay: Transcriptional activation assay is carried out as described previously by Kim et al., above, with minor modifications. […] The pRL-null (Promega) is used as the internal control. […] Luciferase activities are measured in triplicates by using dual luciferase assay system according to the manufacturer's instruction (Promega).
# The bars represent the mean light units [counts per second (cps)/unit protein, i.e., relative luciferase activity] in triplicate wells from three separate experiments.
smiles,measurement,setting,value
"C[C@]12CC[C@H](O)CC1=CC[C@@H]1[C@@H]2CC[C@]2(C)C(n3cnc4ccccc43)=CC[C@@H]12 [Compound 5, 3β-Hydroxy-17-(1H-benzimidazol-1-yl)androsta-5,16-diene]",reduction of average final tumor volume compared to vehicle-treated control,[1]; 0.15 mmol/kg once daily s.c.,41%
same,reduction of average final tumor volume compared to vehicle-treated control,[1]; 0.15 mmol/kg twice daily s.c.,86.5%
same,increase of tumor volume,[2]; week 14,0.5 fold
same,reduction of tumor volume versus control mice,[2]; week 14 (b4 prints 50 mg/kg/twice daily),93.8%
same,type of difference spectrum induced,CYP17,type II difference spectrum
same,IC50,LNCaP cells,6 µM
same,"effect on luciferase activity, compound alone","[3]; 0.1 and 10.0 μM, without DHT",no effect
same,effect on luciferase expression induced by 1.0 nM DHT,[3]; with 1.0 nM DHT,decreased in a concentration-dependent manner
"C[C@]12CCC(=O)C=C1CC[C@@H]1[C@@H]2CC[C@]2(C)C(n3cnc4ccccc43)=CC[C@@H]12 [Compound 6, 17-(1H-benzimidazol-1-yl)androsta-4,16-diene-3-one]",reduction of average final tumor volume compared to vehicle-treated control,[1]; 0.15 mmol/kg once daily s.c.,ineffective
same,reduction of average final tumor volume compared to vehicle-treated control,[1]; 0.15 mmol/kg twice daily s.c.,stimulation of tumor growth; also recorded: enhances tumor growth
same,melting point,,201 to 204 °C
